Test results from patent US20250136581A1, “SUBSTITUTED TRIAZOLE DERIVATIVE, PREPARATION METHOD THEREFOR, PHARMACEUTICAL COMPOSITION THEREOF, AND USE THEREOF” (SHANGHAI SIMR BIOTECHNOLOGY CO., LTD., priority 2021, published 2025).
Where two headings read alike, the source gives them in different places.

How the values were obtained:
[1] = molecular target: α5-GABAA receptor (α5, β3, γ2 subunits) (Homo sapiens (Human), UniProt P18507+P31644); assay: Whole cell patch clamp, inverse agonist efficacy in HEK293 cells expressing α5-GABAA receptor; format: cell-based; settings: HEK293, drug 100 nM, GABA 0.05 μM, −60 mV; read-out: Compound inverse agonist efficacy %
Outline: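 Compounds screened at 100 nM against current induced by 0.05 μM GABA in monoclonal HEK293 cells stably expressing α5β3γ2 GABAA receptors. Recording by whole-cell voltage clamp (−60 mV, pH 7.4 bath, CsCl pipette); efficacy calculated from leak-corrected currents before and after drug.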

[2] = molecular target: human α5β3γ2 receptors (α5-GABAA receptor) (Homo sapiens (Human), UniProt P18507+P31644); assay: 3H-flunitrazepam competition binding, human α5β3γ2 GABAA receptor; settings: HEK293 cell membranes, 1 nM 3H-flunitrazepam; read-out: α5-GABAAR Ki
Outline: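 Radioligand displacement of 1 nM 3H-flunitrazepam from membranes of HEK293 lines stably expressing the human subtypes, 1 h at room temperature, compound in 8-point 4-fold series. Bound label on GF/C filters counted by scintillation; Ki derived from fitted IC50, with flumazenil as low control.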

[3] = Rat pharmacokinetic experiment; format: in vivo; settings: for Kp: male, SD, brain / plasma, read-out: B/P (proportion of compounds entering the brain); for Kp / Cmax: rat, po; for Cmax: plasma
Experimental: The maximum plasma concentration (Cmax) in the rat pharmacokinetic experiment was used to evaluate the absorption of the compounds in rat in vivo. The experimental compound was dissolved and then orally administered by gavage (p.o.) to male SD rats. The rats were fasted overnight before drug administration, and blood was collected via venipuncture at 0.25, 0.5, 1, 2, 4, and 7 hours post dose. Approximately 100 μL blood was collected for each sample; at the same time, the whole brain was taken and homogenized with 3 times the amount of PBS for analysis. The […] method was used to determine drug concentrations in plasma and brain tissue, and the proportion of compounds entering the brain (B/P) was calculated based on the AUC of the compound. Pharmacokinetic parameters were calculated using Phoenix WinNonlin 7.0. The administration vehicle was 5% CMC-Na aqueous solution.

[4] = molecular target: human α2β3γ2 receptors (Homo sapiens (Human), UniProt P18507+P47869); assay: 3H-flunitrazepam competition binding, human α2β3γ2 GABAA receptor; settings: HEK293 cell membranes, 1 nM 3H-flunitrazepam; read-out: Ki α2
Experimental: (§1) The affinity of the compound to each subtype of GABAA receptor was determined by competing for the binding of ^3H-flunitrazepam to HEK293 cells stably expressing human α1β3γ2, α2β3γ2, α3β3γ2, and α5β3γ2 receptors.
(§2) The cells were suspended in 50 mM Tris-HCl buffer (pH=7.4), homogenized 10 times on ice with a homogenizer for 20 seconds, and centrifuged at 1000 g for 10 minutes at 4° C. The supernatant was collected, and the above steps were repeated. The supernatant was centrifuged at 4° C. (33800 g; Thermo, rotor: A27-8×50) for 60 minutes, and the precipitate was resuspended in Tris buffer (50 mM Tris-HCl, 10 mM MgCl2, 0.5 mM EDTA, 10% glycerol). Protein was measured (BCA method, Pierce), and 1 mL aliquots were prepared and stored at −80° C.
(§3) The radioligand competition binding assay was performed in a 200 μL system (96-well plate) containing 100 μL of cell membrane. The concentration of ^3H-flunitrazepam was 1 nM and the concentration of the test compound was in the range of […]. Flumazenil was used as a control. 1 μL of 2 mM flumazenil (final concentration […]) was added to the low signal control well (Low control, LC), and 1 μL of DMSO was added to the high signal control well (High control, HC). The final concentration of target membrane protein was […]. All test compound sample storage solutions were 10 mM. The working concentration of the samples was to dilute all the samples to 0.2 mM with DMSO, followed by 4-fold serial gradient dilutions for a total of 8 concentration gradients. The 96-well plate was sealed with a sealing film, and then incubated on a shaker at room temperature for 1 hour. At the same time, the GF/C filter plate was soaked in soaking buffer (0.3% PEI, stored at 4° C.) for at least 0.5 hours. After the binding incubation was completed, the cells were collected onto a GF/C filter plate using a cell harvester. The plate was washed four times with washing buffer (50 mM Tris-HCl, pH 7.4, stored at 4° C.). After drying in a 50° C. oven for 1 hour, the bottom of the dried GF/C filter plate was sealed. The residual radioactivity on the filter membrane was detected using liquid scintillation counting. 50 μL of scintillation fluid was added to each well, and the plate was sealed. The readings were taken using a Microbeta2. The inhibitory activity of the test sample on the binding of ^3H-flunitrazepam to GABAA receptor membrane proteins was calculated, and the IC50 of each test sample was calculated by dose-effect curve fitting (GraphPad Prism 5 software), and the Ki of the sample was calculated from the IC50, thus evaluating the binding ability of the sample to the various subtypes of GABAA receptors.

[5] = molecular target: human α3β3γ2 receptors (Homo sapiens (Human), UniProt P18507+P34903); assay: 3H-flunitrazepam competition binding, human α3β3γ2 GABAA receptor; settings: HEK293 cell membranes, 1 nM 3H-flunitrazepam; read-out: Ki α3
Experimental: as §1, §2, §3

[6] = molecular target: human α1β3γ2 receptors (Homo sapiens (Human), UniProt P14867+P18507); assay: 3H-flunitrazepam competition binding, human α1β3γ2 GABAA receptor; settings: HEK293 cell membranes, 1 nM 3H-flunitrazepam; read-out: Ki α1
Experimental: as §1, §2, §3

[7] = tested on: α5-GABAA receptor; settings: GABA 1 μM, highest concentration of L-655,708; cited from earlier work

| SMILES | inhibition at 0.1 µM [1] [%] | Ki [2] [nM] | Kp ([3]; 3 mg/kg) | Cmax ([3]; male SD rats, 3 mg/kg) [ng/mL] | Ki [4] [nM] | Ki [5] [nM] | Ki [6] [nM] | Kp ([3]; 1 mg/kg) | Cmax ([3]; male SD rats, 1 mg/kg) [ng/mL] | B/P (proportion of compounds entering the brain) ([3]; male SD rats, p.o., 3 mg/kg, based on AUC) [%] | suppression of the current induced by GABA [7] [%] |
| --- | --- | --- | --- | --- | --- | --- | --- | --- | --- | --- | --- |
| Cc1nnn(-c2ccc(C(F)F)cc2)c1COc1ccc(N2CCNC(=O)C2)cn1 [Example 21, 4-(6-[(1-(4-(Difluoromethyl)phenyl)-4-methyl-1H-1,2,3-triazol-5-yl)methoxy]pyridin-3-yl)piperazin-2-one] | 49.3 | 1.24 |  |  | 41.7 | 21.8 | 36.7 | 0.045 | 576 |  |  |
| Cc1nnn(-c2ccc(C(F)F)cc2)c1COc1ccc(N2CCN(C)C(=O)C2)nn1 [Example 26, 4-(6-((1-(4-(Difluoromethyl)phenyl)-4-methyl-1H-1,2,3-triazol-5-yl)methoxy)pyridazin-3-yl)-1-methylpiperazin-2-one] | 50.3 | 1.32 |  |  | 45.4 | 23.4 | 47.8 | 0.0336 | 637 |  |  |
| Cc1nnn(-c2ccc(C(F)F)cc2)c1COc1ccc(N2CCN3CCNC(=O)[C@@H]3C2)cn1 [Example 56, (S)-8-(6-((1-(4-(Difluoromethyl)phenyl)-4-methyl-1H-1,2,3-triazol-5-yl)methoxy)pyridin-3-yl)octahydro-1H-pyrazino[1,2-a]pyrazin-1-one] | 53.4 | 7.99 | 0.0261 | 2050 | 330 |  |  |  |  |  |  |
| Cc1nnn(-c2ccc(C(F)F)cc2)c1COc1ccc(N2CC(C(=O)N3CCOCC3)C2)nn1 [Example 104, (1-(6-((1-(4-(Difluoromethyl)phenyl)-4-methyl-1H-1,2,3-triazol-5-yl)methoxy)pyridazin-3-yl)azetidin-3-yl)(morpholino)methanone] | 49.9 | 1.77 | 0.0095 | 3890 |  |  |  |  |  |  |  |
| Cc1nnn(-c2ccc(C(F)F)cc2)c1COc1ccc(N2CCN(C3CC3)C(=O)C2)nn1 [Example 108, 1-Cyclopropyl-4-(6-((1-(4-(difluoromethyl)phenyl)-4-methyl-1H-1,2,3-triazol-5-yl)methoxy)pyridazin-3-yl)piperazin-2-one] | 52.2 | 1.66 | 0.0208 | 1780 |  |  |  |  |  |  |  |
| Cc1nnn(-c2ccc(C(F)F)cc2)c1COc1ccc(N2CC(C(=O)NC(C)C)C2)nn1 [Example 155, 1-(6-((1-(4-(Difluoromethyl)phenyl)-4-methyl-1H-1,2,3-triazol-5-yl)methoxy)pyridazin-3-yl)-N-isopropylazetidine-3-carboxamide] | 42.3 | 5.39 | 0.0166 | 3020 | 231 | 68.7 | 389 |  |  |  |  |
| CCOC(=O)c1ncn2c1[C@@H]1CCCN1C(=O)c1cc(OC)ccc1-2 [L-655,708] |  |  |  |  |  |  |  |  |  |  | 15 |

Further lines, with some results ahead:

| inhibition at 0.1 µM [1] [%] | Ki [2] [nM] | Kp ([3]; 3 mg/kg) | Cmax ([3]; male SD rats, 3 mg/kg) [ng/mL] | Ki [4] [nM] | Ki [5] [nM] | Ki [6] [nM] | Kp ([3]; 1 mg/kg) | Cmax ([3]; male SD rats, 1 mg/kg) [ng/mL] | B/P (proportion of compounds entering the brain) ([3]; male SD rats, p.o., 3 mg/kg, based on AUC) [%] | SMILES | suppression of the current induced by GABA [7] [%] |
| --- | --- | --- | --- | --- | --- | --- | --- | --- | --- | --- | --- |
| 45.7 | 1.24 | 0.0135 | 2700 |  |  |  |  |  |  | Cc1nnn(-c2ccc(C(F)F)cc2)c1COc1ccc(N2CC(=O)N3CCC[C@H]3C2)nn1 [Example 14, (S)-2-(6-((1-(4-(difluoromethyl)phenyl)-4-methyl-1H-1,2,3-triazol-5-yl)methoxy)pyridazin-3-yl)hexahydropyrrolo[1,2-a]pyrazin-4(1H)-one] |  |
| 40.5 | 1.11 |  | 3180 | 27.2 | 26.3 | 73.5 |  |  | 3.81 | Cc1nnn(-c2ccc(C(F)F)cc2)c1COc1cnc(N2CCNC(=O)C2)cn1 [Example 169, 4-(5-((1-(4-(Difluoromethyl)phenyl)-4-methyl-1H-1,2,3-triazol-5-yl)methoxy)pyrazin-2-yl)piperazin-2-one] |  |
| 50.8 | 0.55 |  |  | 16.8 | 14.1 | 80.6 |  |  |  | Cc1nnn(-c2ccc(C(F)F)cc2)c1COc1ccc(N2CC(=O)N3CCOC[C@H]3C2)nn1 [Example 173, (R)-8-(6-((1-(4-(Difluoromethyl)phenyl)-4-methyl-1H-1,2,3-triazol-5-yl)methoxy)pyridazin-3-yl)hexahydropyrazino[2,1-c][1,4]oxazin-6(1H)-one] |  |
| 51.2 | 1.21 | 0.0099 | 2670 | 64.2 | 44.6 | 140 |  |  |  | O=C1NCCN2CCN(c3ccc(OCc4c(Cl)nnn4-c4ccc(C(F)F)cc4)nn3)C[C@@H]12 [Example 181, (S)-8-(6-((4-Chloro-1-(4-(difluoromethyl)phenyl)-1H-1,2,3-triazol-5-yl)methoxy)pyridazin-3-yl)hexahydro-2H-pyrazino[1,2-a]pyrazin-1(6H)-one] |  |
